Measured values taken from ChEMBL document CHEMBL5465560, “Selectivity Literature for EUbOPEN Chemogenomic Library” (2024).

Key:
[1] = molecular target: Myosin light chain kinase, smooth muscle (Homo sapiens, UniProt Q15746); test: Selectivity interaction (Kinase panel (Invitrogen, enzymatic assay)) EUB0000162b MYLK
[2] = molecular target: Mitogen-activated protein kinase kinase kinase 4 (Homo sapiens) (UniProt Q9Y6R4); test: Selectivity interaction (KinomeScan (DiscoverX)) EUB0001079a MAP3K4; details: at 1 µM
Mitogen-activated protein kinase kinase kinase 4 (Homo sapiens), sequence (Q9Y6R4 whole entry): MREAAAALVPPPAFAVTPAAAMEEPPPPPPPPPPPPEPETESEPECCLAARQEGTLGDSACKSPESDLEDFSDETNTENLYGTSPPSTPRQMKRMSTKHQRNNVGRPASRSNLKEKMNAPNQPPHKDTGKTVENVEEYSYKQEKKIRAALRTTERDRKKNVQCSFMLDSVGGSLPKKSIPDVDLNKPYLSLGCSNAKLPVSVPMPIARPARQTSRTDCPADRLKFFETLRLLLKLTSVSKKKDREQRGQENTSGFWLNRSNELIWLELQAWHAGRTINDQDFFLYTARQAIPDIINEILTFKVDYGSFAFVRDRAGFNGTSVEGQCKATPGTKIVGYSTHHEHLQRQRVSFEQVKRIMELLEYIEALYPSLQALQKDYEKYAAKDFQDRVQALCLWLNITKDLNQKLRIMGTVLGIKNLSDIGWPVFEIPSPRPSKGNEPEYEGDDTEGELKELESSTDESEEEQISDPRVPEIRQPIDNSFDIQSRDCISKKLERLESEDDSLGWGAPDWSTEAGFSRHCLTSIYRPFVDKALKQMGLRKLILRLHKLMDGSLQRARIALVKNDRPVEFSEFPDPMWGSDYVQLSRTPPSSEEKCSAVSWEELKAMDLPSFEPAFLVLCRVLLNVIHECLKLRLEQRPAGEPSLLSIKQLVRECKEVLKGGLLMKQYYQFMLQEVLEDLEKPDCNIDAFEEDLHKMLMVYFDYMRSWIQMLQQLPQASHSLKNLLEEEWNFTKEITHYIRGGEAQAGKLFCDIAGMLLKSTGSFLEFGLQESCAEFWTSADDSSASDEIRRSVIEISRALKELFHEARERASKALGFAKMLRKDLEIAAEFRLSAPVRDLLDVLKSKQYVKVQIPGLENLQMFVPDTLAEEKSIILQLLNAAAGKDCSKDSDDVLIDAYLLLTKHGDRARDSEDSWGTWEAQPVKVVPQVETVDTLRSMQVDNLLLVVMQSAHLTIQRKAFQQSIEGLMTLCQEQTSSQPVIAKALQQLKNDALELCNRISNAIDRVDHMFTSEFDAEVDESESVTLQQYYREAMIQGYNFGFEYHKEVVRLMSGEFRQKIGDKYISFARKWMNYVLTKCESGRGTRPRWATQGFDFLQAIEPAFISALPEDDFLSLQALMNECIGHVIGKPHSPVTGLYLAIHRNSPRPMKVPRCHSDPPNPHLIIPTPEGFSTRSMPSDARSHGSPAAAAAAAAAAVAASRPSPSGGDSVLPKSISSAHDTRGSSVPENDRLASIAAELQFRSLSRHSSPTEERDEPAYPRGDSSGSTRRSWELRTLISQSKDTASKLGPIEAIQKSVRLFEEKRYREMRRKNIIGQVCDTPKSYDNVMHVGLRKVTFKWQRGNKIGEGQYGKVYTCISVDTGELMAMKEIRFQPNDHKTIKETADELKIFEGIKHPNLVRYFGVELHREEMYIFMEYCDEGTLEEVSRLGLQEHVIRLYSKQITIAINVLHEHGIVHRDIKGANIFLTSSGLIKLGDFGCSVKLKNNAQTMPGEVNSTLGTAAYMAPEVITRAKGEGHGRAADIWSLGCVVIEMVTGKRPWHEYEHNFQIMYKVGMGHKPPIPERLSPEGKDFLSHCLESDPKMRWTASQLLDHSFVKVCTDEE

[3] = molecular target: T1, Receptor-interacting serine/threonine-protein kinase 1 (Homo sapiens) (UniProt Q13546); test: Selectivity interaction (KinomeScan (DiscoverX)) EUB0000666a RIPK1; details: at 10 µM
T1 sequence (whole entry): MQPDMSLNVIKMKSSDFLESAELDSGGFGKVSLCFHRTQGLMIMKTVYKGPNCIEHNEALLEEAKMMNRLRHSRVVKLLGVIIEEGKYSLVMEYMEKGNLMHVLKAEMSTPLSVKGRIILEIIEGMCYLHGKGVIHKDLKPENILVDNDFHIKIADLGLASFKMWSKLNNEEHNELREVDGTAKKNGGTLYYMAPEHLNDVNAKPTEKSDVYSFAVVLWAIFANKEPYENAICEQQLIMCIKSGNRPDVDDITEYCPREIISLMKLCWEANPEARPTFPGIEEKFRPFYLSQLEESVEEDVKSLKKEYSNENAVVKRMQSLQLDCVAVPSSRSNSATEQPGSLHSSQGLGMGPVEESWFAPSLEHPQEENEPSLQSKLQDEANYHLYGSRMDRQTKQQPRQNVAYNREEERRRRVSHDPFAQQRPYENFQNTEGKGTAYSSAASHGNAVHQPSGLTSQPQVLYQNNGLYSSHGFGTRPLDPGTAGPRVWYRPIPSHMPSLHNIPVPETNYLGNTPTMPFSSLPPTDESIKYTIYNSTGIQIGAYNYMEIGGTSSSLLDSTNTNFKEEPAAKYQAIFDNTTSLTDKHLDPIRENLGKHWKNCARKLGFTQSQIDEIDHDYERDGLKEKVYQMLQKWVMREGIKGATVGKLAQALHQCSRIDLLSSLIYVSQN

[4] = molecular target: AP2-associated protein kinase 1 (Homo sapiens, UniProt Q2M2I8); test: Selectivity interaction (Kinase panel (DSF assay)) EUB0001489b AAK1
AP2-associated protein kinase 1, sequence (Q2M2I8 whole entry, looked up): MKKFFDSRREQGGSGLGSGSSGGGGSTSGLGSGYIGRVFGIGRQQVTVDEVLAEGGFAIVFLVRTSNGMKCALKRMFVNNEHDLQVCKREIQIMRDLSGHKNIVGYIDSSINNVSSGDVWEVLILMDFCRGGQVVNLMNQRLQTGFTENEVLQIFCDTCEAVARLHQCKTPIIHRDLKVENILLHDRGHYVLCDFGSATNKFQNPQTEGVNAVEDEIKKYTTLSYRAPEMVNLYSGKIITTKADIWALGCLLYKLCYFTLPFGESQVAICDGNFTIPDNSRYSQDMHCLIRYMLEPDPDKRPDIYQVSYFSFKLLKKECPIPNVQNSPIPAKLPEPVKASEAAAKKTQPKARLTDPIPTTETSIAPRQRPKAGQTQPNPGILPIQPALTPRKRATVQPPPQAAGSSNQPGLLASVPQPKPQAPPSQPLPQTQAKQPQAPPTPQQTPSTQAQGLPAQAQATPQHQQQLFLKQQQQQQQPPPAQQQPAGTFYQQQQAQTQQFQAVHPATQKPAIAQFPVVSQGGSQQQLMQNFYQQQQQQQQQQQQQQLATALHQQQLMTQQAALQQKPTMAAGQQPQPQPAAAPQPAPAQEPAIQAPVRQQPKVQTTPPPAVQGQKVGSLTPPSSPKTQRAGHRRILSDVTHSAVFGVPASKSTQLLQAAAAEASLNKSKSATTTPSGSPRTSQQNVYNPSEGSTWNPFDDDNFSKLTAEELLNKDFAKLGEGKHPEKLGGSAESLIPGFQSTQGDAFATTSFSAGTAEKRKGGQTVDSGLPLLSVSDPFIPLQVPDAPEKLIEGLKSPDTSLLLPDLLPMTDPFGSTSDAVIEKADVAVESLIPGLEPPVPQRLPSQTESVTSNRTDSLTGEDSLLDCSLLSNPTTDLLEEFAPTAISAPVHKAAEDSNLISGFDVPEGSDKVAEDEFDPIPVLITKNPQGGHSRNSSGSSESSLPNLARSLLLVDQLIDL

[5] = system: Tyrosine-protein kinase receptor UFO (Homo sapiens), P30530 [R499C]; test: Selectivity interaction (LanthaScreen Eu Kinase Binding Assay) EUB0001632a AXL; details: at 10 µM
Tyrosine-protein kinase receptor UFO (Homo sapiens), P30530 [R499C], sequence (P30530 whole entry R499C): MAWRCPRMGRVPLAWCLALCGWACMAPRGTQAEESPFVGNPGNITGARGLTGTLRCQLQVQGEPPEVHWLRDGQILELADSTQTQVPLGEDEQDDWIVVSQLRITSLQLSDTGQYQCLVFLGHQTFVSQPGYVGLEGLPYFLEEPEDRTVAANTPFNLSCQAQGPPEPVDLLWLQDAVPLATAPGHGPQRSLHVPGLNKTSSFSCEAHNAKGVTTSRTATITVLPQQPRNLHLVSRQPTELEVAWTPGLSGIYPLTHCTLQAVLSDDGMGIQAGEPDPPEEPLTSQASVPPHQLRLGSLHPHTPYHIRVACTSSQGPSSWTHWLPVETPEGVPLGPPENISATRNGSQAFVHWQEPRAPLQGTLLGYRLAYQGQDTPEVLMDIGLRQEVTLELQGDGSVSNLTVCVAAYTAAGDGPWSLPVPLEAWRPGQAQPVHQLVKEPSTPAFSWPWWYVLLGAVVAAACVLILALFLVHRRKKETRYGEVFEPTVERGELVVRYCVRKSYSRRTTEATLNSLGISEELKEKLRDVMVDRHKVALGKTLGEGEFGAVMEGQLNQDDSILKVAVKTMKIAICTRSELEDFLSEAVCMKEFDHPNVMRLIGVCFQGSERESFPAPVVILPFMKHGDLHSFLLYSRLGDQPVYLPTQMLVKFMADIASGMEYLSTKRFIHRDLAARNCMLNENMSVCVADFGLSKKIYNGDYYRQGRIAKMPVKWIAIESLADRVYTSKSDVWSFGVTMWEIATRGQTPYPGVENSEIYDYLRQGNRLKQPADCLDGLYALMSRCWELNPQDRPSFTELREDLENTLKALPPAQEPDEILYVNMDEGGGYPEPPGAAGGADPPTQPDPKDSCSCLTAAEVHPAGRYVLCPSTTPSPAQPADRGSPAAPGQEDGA

[6] = molecular target: BMP-2-inducible protein kinase (Homo sapiens) (UniProt Q9NSY1); test: Selectivity interaction (KinomeScan (DiscoverX)) EUB0001049a BMP2K; details: at 1 µM
BMP-2-inducible protein kinase (Homo sapiens), sequence (Q9NSY1 whole entry, looked up): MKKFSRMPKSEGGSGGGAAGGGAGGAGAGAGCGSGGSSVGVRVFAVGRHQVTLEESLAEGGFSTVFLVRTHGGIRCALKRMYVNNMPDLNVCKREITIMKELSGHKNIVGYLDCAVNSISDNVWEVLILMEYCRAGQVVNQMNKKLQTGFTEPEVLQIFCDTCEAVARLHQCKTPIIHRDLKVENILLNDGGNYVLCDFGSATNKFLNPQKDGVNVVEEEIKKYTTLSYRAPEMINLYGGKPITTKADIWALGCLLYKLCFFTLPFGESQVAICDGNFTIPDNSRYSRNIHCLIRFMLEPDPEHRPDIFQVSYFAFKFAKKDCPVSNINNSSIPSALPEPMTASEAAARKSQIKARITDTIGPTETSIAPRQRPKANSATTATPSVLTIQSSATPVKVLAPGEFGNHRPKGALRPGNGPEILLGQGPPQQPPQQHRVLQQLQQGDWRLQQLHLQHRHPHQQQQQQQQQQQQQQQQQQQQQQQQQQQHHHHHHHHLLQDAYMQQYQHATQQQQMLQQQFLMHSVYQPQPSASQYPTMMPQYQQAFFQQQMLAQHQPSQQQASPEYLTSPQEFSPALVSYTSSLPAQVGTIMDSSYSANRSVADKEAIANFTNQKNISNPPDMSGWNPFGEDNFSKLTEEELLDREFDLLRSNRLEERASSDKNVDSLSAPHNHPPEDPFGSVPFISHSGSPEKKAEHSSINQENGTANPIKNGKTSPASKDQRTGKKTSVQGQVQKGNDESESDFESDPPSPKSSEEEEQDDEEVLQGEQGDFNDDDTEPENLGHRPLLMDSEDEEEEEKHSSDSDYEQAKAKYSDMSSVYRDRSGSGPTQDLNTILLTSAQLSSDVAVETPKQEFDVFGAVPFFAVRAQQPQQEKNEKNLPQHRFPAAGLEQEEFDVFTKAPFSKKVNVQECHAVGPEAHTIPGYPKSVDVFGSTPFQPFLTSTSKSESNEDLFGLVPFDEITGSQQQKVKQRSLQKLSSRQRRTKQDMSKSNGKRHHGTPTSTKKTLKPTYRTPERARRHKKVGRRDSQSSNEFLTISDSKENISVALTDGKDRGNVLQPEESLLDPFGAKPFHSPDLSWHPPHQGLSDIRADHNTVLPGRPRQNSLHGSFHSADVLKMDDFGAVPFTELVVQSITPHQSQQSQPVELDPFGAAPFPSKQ

[7] = molecular target: Cyclin-dependent kinase 2 (Homo sapiens, UniProt P24941); test: Selectivity interaction (Kinase panel (enzymatic assay)) EUB0000595a CDK2
[8] = molecular target: T2, Serine/threonine-protein kinase ICK (Homo sapiens) (UniProt Q9UPZ9); test: Selectivity interaction (KinomeScan (DiscoverX)) EUB0000595a ICK; details: at 10 µM
T2 sequence (whole entry): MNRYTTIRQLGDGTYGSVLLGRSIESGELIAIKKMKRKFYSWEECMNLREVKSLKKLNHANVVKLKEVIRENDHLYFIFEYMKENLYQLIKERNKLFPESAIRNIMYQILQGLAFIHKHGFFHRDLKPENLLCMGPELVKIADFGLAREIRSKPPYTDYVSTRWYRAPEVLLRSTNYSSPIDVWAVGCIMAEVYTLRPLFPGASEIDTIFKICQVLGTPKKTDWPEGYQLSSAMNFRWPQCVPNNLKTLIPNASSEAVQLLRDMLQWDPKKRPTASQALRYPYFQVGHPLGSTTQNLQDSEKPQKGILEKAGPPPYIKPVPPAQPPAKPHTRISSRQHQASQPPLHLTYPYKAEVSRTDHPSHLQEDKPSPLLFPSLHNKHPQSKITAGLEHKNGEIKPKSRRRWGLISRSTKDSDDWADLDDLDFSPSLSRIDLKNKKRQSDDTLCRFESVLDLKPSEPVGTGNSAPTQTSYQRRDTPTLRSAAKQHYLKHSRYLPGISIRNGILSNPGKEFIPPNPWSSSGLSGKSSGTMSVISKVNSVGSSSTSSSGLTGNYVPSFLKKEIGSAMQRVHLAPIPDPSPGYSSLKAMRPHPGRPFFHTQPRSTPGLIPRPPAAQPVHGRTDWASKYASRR

[9] = molecular target: Cyclin-dependent kinase 17 (Homo sapiens) (UniProt Q00537); details: at 10 µM
[10] = molecular target: Casein kinase I isoform alpha (Homo sapiens, UniProt P48729); test: Selectivity interaction (KinomeScan (DiscoverX)) EUB0000045b CSNK1A1
Casein kinase I isoform alpha, sequence (P48729 2-337 limits assumed): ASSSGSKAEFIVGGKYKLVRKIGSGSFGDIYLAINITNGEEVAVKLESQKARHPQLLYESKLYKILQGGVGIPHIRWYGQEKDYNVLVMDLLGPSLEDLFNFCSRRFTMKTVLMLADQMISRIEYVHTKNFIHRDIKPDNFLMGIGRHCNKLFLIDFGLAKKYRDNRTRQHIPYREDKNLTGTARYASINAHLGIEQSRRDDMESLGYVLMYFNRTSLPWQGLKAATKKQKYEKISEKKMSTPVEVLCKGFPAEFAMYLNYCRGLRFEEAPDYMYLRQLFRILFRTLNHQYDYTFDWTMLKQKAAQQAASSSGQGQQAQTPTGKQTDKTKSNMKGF

[11] = molecular target: T3, Serine/threonine-protein kinase Nek2 (Homo sapiens) (UniProt P51955); test: Selectivity interaction (Kinase panel (literature)) EUB0001199aCl NEK2; details: at 1 µM
T3 sequence (whole entry): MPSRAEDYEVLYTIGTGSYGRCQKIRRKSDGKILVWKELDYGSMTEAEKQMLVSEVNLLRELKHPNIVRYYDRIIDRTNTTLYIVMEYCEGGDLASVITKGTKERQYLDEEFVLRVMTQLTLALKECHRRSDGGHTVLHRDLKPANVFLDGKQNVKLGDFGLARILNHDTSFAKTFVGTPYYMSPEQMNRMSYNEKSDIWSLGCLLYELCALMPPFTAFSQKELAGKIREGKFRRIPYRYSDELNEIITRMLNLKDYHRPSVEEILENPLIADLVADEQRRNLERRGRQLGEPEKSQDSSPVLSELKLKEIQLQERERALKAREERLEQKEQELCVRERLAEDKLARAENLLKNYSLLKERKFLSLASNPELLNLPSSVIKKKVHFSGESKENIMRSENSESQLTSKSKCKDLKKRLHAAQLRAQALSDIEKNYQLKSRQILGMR

Compound `CN(C)C(=O)Cn1cc(-c2ccc(-c3cncc4ccccc34)cc2)cn1` has an IC50 [1] of 531 nM.

In the case of `Nc1cnc(N2CCc3cc(S(=O)(=O)Nc4c(F)cc(Cl)cc4F)cc(N4CCCC4=O)c32)nc1` [TP-020n], the % of control [2] is reported as 85%.

For `O=C(NOC[C@H](O)CO)c1ccc(F)c(F)c1Nc1ccc(I)cc1F`, the % of control [3] was 85%.

Work on `CN1CCN(C(=O)c2ccc3cc2OCCOCCNc2ccn4ncc-3c4n2)CC1` yielded a dTM [4] of 4.2 K.

For `Cn1cc(-n2cnc3c(NCc4nc5cc(Cl)c(Cl)cc5[nH]4)nc(N4CCOCC4)nc32)cn1`, the % of inhibition [5] was -15.8%.

For `COc1cc(Nc2nc(C)cc(-c3cnn4nc(OC)ccc34)n2)cc(C(F)(F)F)c1`, the % of control [6] was 86%.

For `COCC(=O)NC/C=C/c1ccc2ncnc(Nc3ccc(Oc4ccc(C)nc4)c(C)c3)c2c1` [CP-724714], the IC50 [7] was over 10000 nM, the % of control [8] was 100% and the % of control [9] was 100%.

Compound `C=CC(=O)Nc1cc(-n2c(=O)ccc3cnc4ccc(-c5ccc(NS(C)(=O)=O)cc5)cc4c32)ccc1C` has a % of control ([10]; at 1 µM) of 100% and a % of control ([10]; at 10 µM) of 100%.

`CN1Cc2nccc(-c3cn(C)nc3-c3ccc(F)cc3)c2C1=O` gave a % of inhibition [11] of 4%.
